The source of these data is US9867826B2, “Heterocycles as modulators of kinase activity” (Merck Patent GmbH, priority 2013, dated 2018).

The target in one assay is His-AKT (Full Length) (Homo sapiens (Human), UniProt P31749). The assay is described as follows: AKT enzyme assay. Format: biochemical. The conditions noted are these: 160 uM ATP. The protocol:
A TTP Mosquito liquid handling instrument was used to place 125 nl of the appropriate concentration of inhibitor in 100% DMSO (for a dose response curve calculation) into each well of a 384-well plate. To this reaction components were added to a final volume of 12.5 μl: • 0.1 ng/μl His-AKT (Full Length), (Invitrogen, Part # P2999, Lot #641228C). • 160 uM ATP (Fluka, 02055) • 1 mM DTT (Sigma, D0632) • 1 mM MgCl2 (Sigma, M1028) • 1 μM substrate peptide (sequence FITC-AHA-GRPRTSSFAEG-NH2), synthesized by Tufts Peptide Synthesis service. • 100 mM HEPES pH 7.5 (Calbiochem, 391338) • 0.015% Brij-35 (Sigma, B4184)
The reaction was incubated for 90 min at 25 C., and then stopped by the addition of 70 μl of Stop buffer (100 mM HEPES pH 7.5, 0.015% Brij-35, 10 mM EDTA (Sigma, E7889)).
The plate was read on a Caliper LC 3000 in an Off-Chip mobility shift assay format, using the following parameters for a 12-sipper chip: screening pressure −2.3 psi, upstream voltage −500, and downstream voltage −3000. These conditions caused unphosphorylated substrate and phosphorylated product peptide to resolve as separate peaks allowing direct measurement of percentage of conversion of substrate to product.
The percent conversion was plotted against concentration of inhibitor to produce a sigmoidal dose response curve, from which an IC50 was calculated.

Another assay addresses P70S6K (T412E mutant) (Homo sapiens (Human), UniProt P23443, T412E). Put plainly: P70S6K enzyme assay. Format: biochemical. The conditions noted are these: 24 μM ATP. As for the experimental part:
P70S6K inhibitor compounds were diluted and plated in 96 well plates. A reaction mixture including the following components was then added to the compound plate to initiate the enzyme reaction; P70S6K (3 nM, T412E mutant, Millipore) was mixed with 24 μM ATP in an assay buffer containing 100 mM Hepes (pH 7.5), 5 mM MgCl2, 1 mM DTT, 0.015% Brij and 1 μM of the substrate peptide FITC-AHA-AKRRRLSSLRA-OH (derived from the S6 ribosomal protein sequence, FITC=fluorescein isothiocyanate, AHA=6-aminohexanoic acid). The reaction was incubated for 90 min at 25° C., before the addition of 10 mM EDTA to stop the reaction. The proportion of substrate and product (phosphorylated) peptide was analysed on a Caliper Life Sciences Lab Chip 3000, using a pressure of −1.4 psi, and upstream and downstream voltages of −3000 and −700 respectively. Product peaks were resolved before substrate peaks on the resulting chromatograms.

Where only a bound is given, the exact number is not on record here.

P70S6K (T412E mutant), sequence (P23443 whole entry T412E): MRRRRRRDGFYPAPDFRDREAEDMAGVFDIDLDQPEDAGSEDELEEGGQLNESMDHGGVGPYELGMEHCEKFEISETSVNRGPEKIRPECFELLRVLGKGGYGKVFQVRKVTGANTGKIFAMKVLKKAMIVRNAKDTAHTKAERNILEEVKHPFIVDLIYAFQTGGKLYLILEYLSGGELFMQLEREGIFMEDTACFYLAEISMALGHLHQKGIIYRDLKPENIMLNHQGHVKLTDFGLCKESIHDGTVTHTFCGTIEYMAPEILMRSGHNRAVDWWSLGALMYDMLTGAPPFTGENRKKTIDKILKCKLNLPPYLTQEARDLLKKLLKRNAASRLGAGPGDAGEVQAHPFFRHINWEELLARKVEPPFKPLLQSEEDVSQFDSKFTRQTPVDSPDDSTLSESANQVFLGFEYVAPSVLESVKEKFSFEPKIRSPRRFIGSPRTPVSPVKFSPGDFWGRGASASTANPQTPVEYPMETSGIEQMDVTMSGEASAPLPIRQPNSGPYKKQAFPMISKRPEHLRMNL
His-AKT (Full Length), sequence (P31749 whole entry): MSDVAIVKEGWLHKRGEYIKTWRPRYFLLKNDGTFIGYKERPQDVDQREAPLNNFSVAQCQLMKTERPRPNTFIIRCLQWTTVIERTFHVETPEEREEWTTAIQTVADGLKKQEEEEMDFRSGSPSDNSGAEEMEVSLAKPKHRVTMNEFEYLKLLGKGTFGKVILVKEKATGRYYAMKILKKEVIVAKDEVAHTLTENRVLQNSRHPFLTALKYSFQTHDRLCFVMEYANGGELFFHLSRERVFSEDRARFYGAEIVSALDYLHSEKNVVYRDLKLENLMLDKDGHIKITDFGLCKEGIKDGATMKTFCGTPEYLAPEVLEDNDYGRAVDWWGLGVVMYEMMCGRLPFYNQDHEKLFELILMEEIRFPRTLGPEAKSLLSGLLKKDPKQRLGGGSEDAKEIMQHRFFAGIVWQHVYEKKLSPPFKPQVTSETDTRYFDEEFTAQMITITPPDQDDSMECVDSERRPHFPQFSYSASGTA

Consider `NC(=O)c1c(N)ncnc1N1CC[C@@H](c2nc(-c3ccc(F)c(C(F)(F)F)c3)cn2CCN2CCC2)[C@@H](F)C1` (racemic) [Compound 2, 4-Amino-6-{3,4-cis-4-{1-(2-azetidin-1-yl-ethyl)-4-(4-fluoro-3-trifluoromethyl-phenyl)-1H-imidazol-2-yl}-3-fluoro-piperidin-1-yl}-pyrimidine-5-carboxamide], for which the half-inhibitory concentration (IC50) at His-AKT (Full Length) and on P70S6K (T412E mutant) was below 1 nM each time.
For the compound `Nc1ncnc(N2CC[C@@H](c3nc(-c4ccc(F)c(C(F)(F)F)c4)cn3CCN3CCC3)[C@@H](F)C2)c1Cl` (racemic) [Compound 10, 6-{3,4-cis-4-[1-(2-Azetidin-1-yl-ethyl)-4-(4-fluoro-3-trifluoromethyl-phenyl)-1H-imidazol-2-yl]-3-fluoro-piperidin-1-yl}-5-chloro-pyrimidin-4-ylamine], the IC50 against His-AKT (Full Length) and at P70S6K (T412E mutant) was below 1 nM in each case.
Take `NC(=O)c1c(N)ncnc1N1CC[C@H](c2nc(-c3ccc(F)c(C(F)(F)F)c3)cn2CCN2CCC2)[C@H](F)C1` (single isomer, unassigned) [Compound 4]: the IC50 on His-AKT (Full Length) was above 10 nM; on P70S6K (T412E mutant), 1 to 10 nM.
The corresponding values for `CCc1c(N)ncnc1N1CCC(O)(c2nc(-c3ccc(F)c(C)c3)cn2CCN2CCC2)CC1` [Compound 46, 1-(6-Amino-5-ethyl-pyrimidin-4-yl)-4-[1-(2-azetidin-1-yl-ethyl)-4-(4-fluoro-3-methyl-phenyl)-1H-imidazol-2-yl]-piperidin-4-ol] are 1 to 10 nM and 1 to 10 nM.
The corresponding values for `CN(C)CCn1cc(-c2ccc(F)c(C(F)(F)F)c2)nc1[C@H]1CCN(c2ncnc(N)c2Cl)C[C@H]1F` (single isomer, unassigned) [Compound 30] are above 10 nM and 1 to 10 nM.
For `CCOc1c(N)ncnc1N1CC[C@H](c2nc(-c3ccc(F)c(C(F)(F)F)c3)cn2CCN2CCC2)[C@H](F)C1` (single isomer, unassigned) [Compound 23], the IC50 at His-AKT (Full Length) and against P70S6K (T412E mutant) was 1 to 10 nM in each case.
`CN(C)CCn1cc(-c2ccc(F)c(C(F)(F)F)c2)nc1[C@@H]1CCN(c2ncnc(N)c2Cl)C[C@@H]1F` (single isomer, unassigned) [Compound 29]: the IC50 against His-AKT (Full Length) and at P70S6K (T412E mutant) was 1 to 10 nM in each case.
`Cc1cc(-c2cn(CCN3CCC3)c([C@@H]3CCN(c4ncnc(N)c4C#N)C[C@@H]3F)n2)ccc1F` (racemic) [Compound 18, 4-Amino-6-{cis-4-[1-(2-azetidin-1-yl-ethyl)-4-(4-fluoro-3-methyl-phenyl)-1H-imidazol-2-yl]-3-fluoro-piperidin-1-yl}-pyrimidine-5-carbonitrile]: the IC50 on His-AKT (Full Length) and against P70S6K (T412E mutant) was 1 to 10 nM each time.
As for `CC(C)c1c(N)ncnc1N1CC[C@@H](c2nc(-c3ccc(F)c(C(F)(F)F)c3)cn2CCN(C)C)[C@@H](F)C1` (single isomer, unassigned) [Compound 32], the IC50 against His-AKT (Full Length) and on P70S6K (T412E mutant) was 1 to 10 nM each time.
Regarding `Cc1cc(-c2cn(CCN3CCC3)c([C@H]3CCN(c4ncnc(N)c4C(C)C)C[C@H]3F)n2)ccc1F` (single isomer, unassigned) [Compound 34], the results for the IC50 against His-AKT (Full Length) and at P70S6K (T412E mutant) were above 10 nM and 1 to 10 nM, respectively.
For `N#Cc1c(N)ncnc1N1CC[C@H](c2nc(-c3ccc(F)c(C(F)(F)F)c3)cn2CCN2CCC2)[C@@H](F)C1` (racemic) [Compound 7, 4-amino-6-{3,4-trans-4-[1-(2-azetidin-1-yl-ethyl)-4-(4-fluoro-3-trifluoromethyl-phenyl)-1H-imidazol-2-yl]-3-fluoro-piperidin-1-yl}-pyrimidine-5-carbonitrile], the results for the IC50 on His-AKT (Full Length) and at P70S6K (T412E mutant) were above 10 nM and 1 to 10 nM, respectively.
In the case of `N#Cc1c[nH]c2ncnc(N3CC[C@@H](c4nc(-c5ccnc(C(F)(F)F)c5)cn4CCN4CCC4)[C@@H](F)C3)c12` (racemic) [Compound 43], the IC50 on His-AKT (Full Length) and at P70S6K (T412E mutant) was 1 to 10 nM in each case.
With `Cc1cc(-c2cn(CCN(C)C)c([C@@H]3CCN(c4ncnc(N)c4C#N)C[C@@H]3F)n2)ccc1F` (racemic) [Compound 9], the IC50 against His-AKT (Full Length) and against P70S6K (T412E mutant) was 1 to 10 nM each time.
With `N#Cc1c(N)ncnc1N1CC[C@@H](c2nc(-c3ccc(F)c(C(F)(F)F)c3)cn2CCN2CCC2)[C@@H](F)C1` (single isomer, unassigned) [Compound 40], the IC50 on His-AKT (Full Length) and against P70S6K (T412E mutant) was 1 to 10 nM throughout.
On to `NC(=O)c1c(N)ncnc1N1CC[C@@H](c2nc(-c3ccc(F)c(C(F)(F)F)c3)cn2CCN2CCC2)[C@@H](F)C1` (single isomer, unassigned) [Compound 3], for which the IC50 against His-AKT (Full Length) and on P70S6K (T412E mutant) was 1 to 10 nM each time.
In the case of `C[C@H]1CN(c2ncnc(N)c2C(N)=O)CC[C@H]1c1nc(-c2ccc(F)c(C(F)(F)F)c2)cn1CCN1CCC1` (racemic) [Compound 6, 4-Amino-6-{3,4-cis-4-[1-(2-azetidin-1-yl-ethyl)-4-(4-fluoro-3-trifluoromethyl-phenyl)-1H-imidazol-2-yl]-3-methyl-piperidin-1-yl}-pyrimidine-5-carboxamide], the IC50 on His-AKT (Full Length) and on P70S6K (T412E mutant) was above 10 nM in each case.
Turning to `Cc1cc(-c2cn(CCN3CCC3)c(C3(O)CCN(c4ncnc(N)c4C(C)C)CC3)n2)ccc1F` [Compound 45, 1-(6-Amino-5-isopropyl-pyrimidin-4-yl)-4-[1-(2-azetidin-1-yl-ethyl)-4-(4-fluoro-3-methyl-phenyl)-1H-imidazol-2-yl]-piperidin-4-ol], the IC50 against His-AKT (Full Length) and against P70S6K (T412E mutant) was 1 to 10 nM each time.
With `Cc1cc(-c2cn(CCN3CCC3)c(C3CCN(c4ncnc(N)c4C(C)C)CC3(F)F)n2)ccc1F` (centres unmarked) [Compound 50, 6-{4-[1-(2-Azetidin-1-yl-ethyl)-4-(4-fluoro-3-methyl-phenyl)-1H-imidazol-2-yl]-3,3-difluoro-piperidin-1-yl}-5-isopropyl-pyrimidin-4-ylamine], the IC50 at His-AKT (Full Length) and at P70S6K (T412E mutant) was 1 to 10 nM in each case.
Regarding `Cc1cc(-c2cn(CCN3CCC3)c([C@H]3CCN(c4ncnc(N)c4C(N)=O)C[C@H]3F)n2)ccc1F` (single isomer, unassigned) [Compound 28], the IC50 at His-AKT (Full Length) and against P70S6K (T412E mutant) was above 10 nM throughout.
`Nc1ncnc(N2CC[C@@H](c3nc(-c4ccc(F)c(C(F)(F)F)c4)cn3CCN3CCC3)[C@H](F)C2)c1Cl` (racemic) [Compound 11, 6-{3,4-trans-4-[1-(2-Azetidin-1-yl-ethyl)-4-(4-fluoro-3-trifluoromethyl-phenyl)-1H-imidazol-2-yl]-3-fluoro-piperidin-1-yl}-5-chloro-pyrimidin-4-ylamine]: the half-inhibitory concentration (IC50) at His-AKT (Full Length) and on P70S6K (T412E mutant) was 1 to 10 nM throughout.
For the compound `Cc1cc(-c2cn(CCN3CCC3)c([C@@H]3CCN(c4ncnc(N)c4C(N)=O)C[C@@H]3F)n2)ccc1F` (single isomer, unassigned) [Compound 27], the IC50 against His-AKT (Full Length) and against P70S6K (T412E mutant) was 1 to 10 nM in each case.
As to `C[C@H]1CN(c2ncnc(N)c2C#N)CC[C@H]1c1nc(-c2ccc(F)c(C(F)(F)F)c2)cn1CCN1CCC1` (racemic) [Compound 5, 4-Amino-6-{3,4-cis-4-[1-(2-azetidin-1-yl-ethyl)-4-(4-fluoro-3-trifluoromethyl-phenyl)-1H-imidazol-2-yl]-3-methyl-piperidin-1-yl}-pyrimidine-5-carbonitrile], the IC50 is above 10 nM at His-AKT (Full Length) and 1 to 10 nM at P70S6K (T412E mutant).
The corresponding values for `NC(=O)c1c(N)ncnc1N1CC[C@@H](c2nc(-c3ccc(F)c(C(F)(F)F)c3)cn2CCN2CCC2)[C@H](F)C1` (racemic) [Compound 8, 4-Amino-6-{3,4-trans-4-[1-(2-azetidin-1-yl-ethyl)-4-(4-fluoro-3-trifluoromethyl-phenyl)-1H-imidazol-2-yl]-3-fluoro-piperidin-1-yl}-pyrimidine-5-carboxamide] are above 10 nM and 1 to 10 nM.
The corresponding values for `Cc1cc(-c2cn(CCN3CCC3)c(C3CCN(c4ncnc(N)c4C(N)=O)CC3(F)F)n2)ccc1F` (centres unmarked) [Compound 49, 4-Amino-6-{4-[1-(2-azetidin-1-yl-ethyl)-4-(4-fluoro-3-methyl-phenyl)-1H-imidazol-2-yl]-3,3-difluoro-piperidin-1-yl}-pyrimidine-5-carboxylic acid amide] are above 10 nM and above 10 nM.
Turning to `CN(C)CCn1cc(-c2ccc(F)c(C(F)(F)F)c2)nc1[C@@H]1CCN(c2ncnc(N)c2C(N)=O)C[C@@H]1F` (racemic) [Compound 15], the figures for the IC50 at His-AKT (Full Length) and against P70S6K (T412E mutant) were above 10 nM and 1 to 10 nM, respectively.
